Data taken from ChEMBL document CHEMBL2406933, “Discovery of Protein-Protein Interaction Inhibitors of Replication Protein A” (ACS Med Chem Lett, 2013).
Activity calls are given as the source filed them. The rule behind the calls is not given here.

Molecular target: T1, Replication protein A 70 kDa DNA-binding subunit (Homo sapiens, UniProt P27694)
Assay: Binding affinity to human RPA70N assessed as inhibition of interaction with FITC-Ahx-DFTADDLEELDTLAS-NH2 after 1 hr by fluorescence polarization anisotropy assay

T1 sequence (P27694 whole entry): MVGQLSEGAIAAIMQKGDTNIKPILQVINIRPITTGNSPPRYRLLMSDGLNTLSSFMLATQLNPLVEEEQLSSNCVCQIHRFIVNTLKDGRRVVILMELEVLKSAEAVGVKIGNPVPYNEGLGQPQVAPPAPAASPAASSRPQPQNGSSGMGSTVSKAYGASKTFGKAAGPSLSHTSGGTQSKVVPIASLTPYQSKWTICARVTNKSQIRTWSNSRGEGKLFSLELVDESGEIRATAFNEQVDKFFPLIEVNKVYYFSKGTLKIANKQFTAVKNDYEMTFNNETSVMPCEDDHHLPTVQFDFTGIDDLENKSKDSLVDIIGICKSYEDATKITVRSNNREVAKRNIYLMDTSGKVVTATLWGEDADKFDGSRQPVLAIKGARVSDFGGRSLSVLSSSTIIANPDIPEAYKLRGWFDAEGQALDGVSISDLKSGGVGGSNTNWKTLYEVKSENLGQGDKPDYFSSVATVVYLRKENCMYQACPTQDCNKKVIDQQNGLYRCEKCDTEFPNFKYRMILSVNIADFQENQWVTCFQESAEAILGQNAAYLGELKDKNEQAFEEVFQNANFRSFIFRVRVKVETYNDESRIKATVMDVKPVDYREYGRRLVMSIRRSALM

| SMILES | Kd [µM] |
| --- | --- |
| O=C(O)c1cc2ccc(-n3c(-c4cccc(Oc5ccccc5)c4)n[nH]c3=S)cc2s1 | 104 |
| O=C(O)c1sc2cc(-n3c(-c4ccc5ccccc5c4)n[nH]c3=S)ccc2c1Cl | 43 |
| O=C(O)c1sc2cc(-n3c(S)nnc3-c3ccc(Cl)cc3)ccc2c1Cl | 52 |
| O=C(O)c1sc2cc(-n3c(S)nnc3-c3ccccc3)ccc2c1Cl | 130 |
| O=C(O)CSc1nnc(-c2ccc(O)cc2)n1-c1ccc(Cl)c(Cl)c1 | 233 |
| COc1ccc(-c2nnc(SCC(=O)O)n2-c2ccc(Cl)c(Cl)c2)cc1 | 164 |
| O=C(O)c1sc2cc(-n3c(-c4ccc(Cl)c(Br)c4)n[nH]c3=S)ccc2c1Cl | 16 |
| Cc1ccc(-c2n[nH]c(=S)n2-c2ccc3c(Cl)c(C(=O)O)sc3c2)cc1 | 92 |
| O=C(O)CSc1nnc(-c2ccc3ccccc3c2)n1-c1ccc(Cl)c(Cl)c1 | 47 |
| O=C(O)c1cc2ccc(-n3c(-c4ccc(Br)cc4)n[nH]c3=S)cc2s1 | 71 |
| O=C(O)CSc1nnc(-c2ccccc2Cl)n1-c1cccc(Cl)c1 | > 250 |
| Cc1ccc(-c2nnc(S)n2-c2ccc3cc(C(=O)O)sc3c2)cc1 | > 250 |
| Cc1cccc(-c2n[nH]c(=S)n2-c2ccc3c(Cl)c(C(=O)O)sc3c2)c1 | 83 |
| O=C(O)c1sc2cc(-n3c(-c4cccc(Oc5ccccc5)c4)n[nH]c3=S)ccc2c1Cl | 63 |
| O=C(O)CSc1nnc(-c2cc3ccccc3s2)n1-c1ccc(Cl)c(Cl)c1 | 58 |
| O=C(O)c1sc2cc(-n3c(S)nnc3-c3ccc(F)cc3)ccc2c1Cl | 47 |
| Cc1ccccc1-c1nnc(S)n1-c1ccc2cc(C(=O)O)sc2c1 | > 250 |
| O=C(O)c1sc2cc(-n3c(S)nnc3-c3ccc(Br)cc3)ccc2c1Cl | 42 |
| O=C(O)c1cc2ccc(-n3c(S)nnc3-c3ccc(Cl)cc3)cc2s1 | 78 |
| O=C(O)c1sc2cc(-n3c(S)nnc3-c3ccc(Br)c(Cl)c3)ccc2c1Cl | 11 |
| Cc1ccc2c(Cl)c(-c3nnc(SCC(=O)O)n3-c3ccc(Cl)c(Cl)c3)sc2c1 | 18 |
| COc1ccc(-c2nnc(SCC(=O)O)n2-c2ccc(Cl)cc2)cc1 | > 250 |
| O=C(O)c1cc2ccc(-n3c(-c4ccc(F)cc4)n[nH]c3=S)cc2s1 | > 250 |
| Nc1ccc(-c2nnc(SCC(=O)O)n2-c2ccc(Cl)c(Cl)c2)cc1 | 109 |

| SMILES | Kd [µM] |
| --- | --- |
| COc1ccc(-c2nnc(SCC(=O)O)n2-c2cccc(Cl)c2)cc1 | > 250 |
| O=C(O)c1sc2cc(Cl)ccc2c1Cl | 627 |
| Cc1cccc(-c2n[nH]c(=S)n2-c2ccc3c(Cl)c(C(=O)O)sc3c2)c1Br | 48 |
| O=C(O)CSc1nnc(-c2sc3ccccc3c2Cl)n1-c1ccc(Cl)c(Cl)c1 | 46 |
| O=C(O)c1sc2cc(-n3c(S)nnc3-c3c[nH]c4ccccc34)ccc2c1Cl | > 250 |
| O=C(O)c1sc2cc(-n3c(S)nnc3-c3cccc(Br)c3)ccc2c1Cl | 58 |
| Cc1cc(-c2nnc(S)n2-c2ccc3c(Cl)c(C(=O)O)sc3c2)ccc1Br | 31 |
| O=C(O)c1cc2ccc(-n3c(-c4cc(Cl)cc(Cl)c4)n[nH]c3=S)cc2s1 | 35 |
| O=C(O)CSc1nnc(-c2ccc(F)cc2)n1-c1ccc(Cl)cc1 | > 250 |
| Cc1ccccc1-c1nnc(SCC(=O)O)n1-c1cccc(Cl)c1 | > 250 |
| O=C(O)c1sc2cc(-n3c(S)nnc3C3CCCCC3)ccc2c1Cl | 25 |
| O=C(O)c1sc2cc(-n3c(S)nnc3-c3ccc(Cl)c(Cl)c3)ccc2c1Cl | 11 |
| Cc1ccccc1-c1nnc(S)n1-c1ccc2c(Cl)c(C(=O)O)sc2c1 | 66 |
| O=C(O)c1cc2ccc(-n3c(-c4cccc(Br)c4)n[nH]c3=S)cc2s1 | 49 |
| Clc1ccc(-c2nn[nH]n2)cc1 | 1850 |
| O=C(O)CSc1nnc(-c2ccc(F)cc2)n1-c1cccc(Cl)c1 | > 250 |
| O=C(O)c1cc2ccc(-n3c(S)nnc3-c3ccc(Br)c(Cl)c3)cc2s1 | 12 |
| O=C(O)CSc1nnc(-c2ccc([N+](=O)[O-])cc2)n1-c1ccc(Cl)c(Cl)c1 | 178 |
| O=C(O)CSc1nnc(-c2ccccc2Br)n1-c1cccc(Cl)c1 | > 250 |
| O=C(O)c1cc2ccc(-n3c(S)nnc3-c3ccccc3)cc2s1 | > 250 |
| O=C(O)c1cc2ccc(-n3c(S)nnc3-c3ccc(Cl)c(Cl)c3)cc2s1 | 22 |
| O=C(O)CSc1nnc(-c2sc3ccccc3c2Cl)n1-c1ccccc1 | 135 |
| Cc1cccc(-c2n[nH]c(=S)n2-c2ccc3cc(C(=O)O)sc3c2)c1 | > 250 |
| O=C(O)c1sc2cc(-n3c(-c4cc(Cl)cc(Cl)c4)n[nH]c3=S)ccc2c1Cl | 15 |

Test system: not listed separately
Assay: Inhibition of human RPA binding to [32P]-ssDNA overexpressed in Escherichia coli by EMSA

| SMILES | IC50 [µM] |
| --- | --- |
| CCOc1ccc2cc(C3CN(C(=O)CCC(=O)O)N=C3c3ccc(Br)cc3)c(Cl)nc2c1 (centres undefined) | 40 |

Molecular target: T1, Replication protein A 70 kDa DNA-binding subunit
Assay: Binding affinity to human RPA70N expressed in Escherichia coli BL21 (DE3) assessed as inhibition of interaction with FITC-Ahx-DFTADDLEELDTLAS-NH2 after 1 hr by fluorescence polarization anisotropy assay

| SMILES | Kd [µM] |
| --- | --- |
| CC(C)C1=C[C@]23CC[C@@H]4[C@](C)(CCC[C@@]4(C)C(=O)O)[C@H]2C[C@@H]1[C@@H](C(=O)O)[C@@H]3C(=O)O | 18.3 |

Molecular target: T1, Replication protein A 70 kDa DNA-binding subunit
Assay: Binding affinity to human RPA (1 to 422) containing RPA70N and RPA70NAB assessed as inhibition of interaction with FITC-Ahx-DFTADDLEELDTLAS-NH2 after 1 hr by fluorescence polarization anisotropy assay

| SMILES | Kd [µM] |
| --- | --- |
| O=C(O)c1sc2cc(-n3c(S)nnc3-c3ccc(Br)c(Cl)c3)ccc2c1Cl | 10 |
| O=C(O)c1sc2cc(-n3c(S)nnc3-c3ccc(Cl)c(Cl)c3)ccc2c1Cl | 17 |

Species: Homo sapiens
Assay: Inhibition of full length RPA (unknown origin) binding to ssDNA up to 100 uM preincubated for 5 mins prior to substrate addition measured after 30 mins by EMSA

| SMILES | inhibition |
| --- | --- |
| O=C(O)c1sc2cc(-n3c(S)nnc3-c3ccc(Br)c(Cl)c3)ccc2c1Cl | inactive |
| O=C(O)c1sc2cc(-n3c(S)nnc3-c3ccc(Cl)c(Cl)c3)ccc2c1Cl | inactive |
